Measurements from PubChem BioAssay (NCI).
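Results reflect a 48-hour exposure of cells in 96-well plates to compound at five concentrations. TGI: concentration producing complete growth inhibition.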

How the values were obtained:
Experiment in all cases: NCI-60 cell line screen, 48 h
786-0 renal = tested on: 786-0 renal
A549 NSCLC = tested on: A549 NSCLC
ACHN renal = tested on: ACHN renal
CCRF-CEM leukemia = tested on: CCRF-CEM leukemia
COLO 205 colon = tested on: COLO 205 colon
DMS 114 small cell lung = tested on: DMS 114 small cell lung
DMS 273 small cell lung = tested on: DMS 273 small cell lung
EKVX NSCLC = tested on: EKVX NSCLC
HCC-2998 colon = tested on: HCC-2998 colon
HCT-116 colon = tested on: HCT-116 colon
HCT-15 colon = tested on: HCT-15 colon
HL-60(TB) leukemia = tested on: HL-60(TB) leukemia
HOP-62 NSCLC = tested on: HOP-62 NSCLC
HT29 colon = tested on: HT29 colon
IGROV1 ovarian = tested on: IGROV1 ovarian
K-562 leukemia = tested on: K-562 leukemia
KM12 colon = tested on: KM12 colon
KM20L2 colon = tested on: KM20L2 colon
LOX IMVI melanoma = tested on: LOX IMVI melanoma
LXFL 529 NSCLC = tested on: LXFL 529 NSCLC
M14 melanoma = tested on: M14 melanoma
M19-MEL melanoma = tested on: M19-MEL melanoma
MALME-3M melanoma = tested on: MALME-3M melanoma
MOLT-4 leukemia = tested on: MOLT-4 leukemia
NCI-H226 lung = tested on: NCI-H226 lung
NCI-H23 lung = tested on: NCI-H23 lung
NCI-H460 lung = tested on: NCI-H460 lung
NCI-H522 lung = tested on: NCI-H522 lung
OVCAR-3 ovarian = tested on: OVCAR-3 ovarian
OVCAR-8 ovarian = tested on: OVCAR-8 ovarian
RPMI-8226 leukemia = tested on: RPMI-8226 leukemia
SF-268 CNS = tested on: SF-268 CNS
SF-295 CNS = tested on: SF-295 CNS
SF-539 CNS = tested on: SF-539 CNS
SK-MEL-28 melanoma = tested on: SK-MEL-28 melanoma
SK-MEL-5 melanoma = tested on: SK-MEL-5 melanoma
SK-OV-3 ovarian = tested on: SK-OV-3 ovarian
SN12C renal = tested on: SN12C renal
SNB-19 CNS = tested on: SNB-19 CNS
SR leukemia = tested on: SR leukemia
SW-620 colon = tested on: SW-620 colon
TK-10 renal = tested on: TK-10 renal
UACC-257 melanoma = tested on: UACC-257 melanoma
UO-31 renal = tested on: UO-31 renal
XF 498 CNS = tested on: XF 498 CNS
DLD-1 colon = tested on: DLD-1 colon
HOP-92 NSCLC = tested on: HOP-92 NSCLC
OVCAR-4 ovarian = tested on: OVCAR-4 ovarian
OVCAR-5 ovarian = tested on: OVCAR-5 ovarian
RXF 393 renal = tested on: RXF 393 renal
SK-MEL-2 melanoma = tested on: SK-MEL-2 melanoma
SNB-75 CNS = tested on: SNB-75 CNS
SNB-78 CNS = tested on: SNB-78 CNS
U251 CNS = tested on: U251 CNS
UACC-62 melanoma = tested on: UACC-62 melanoma

Measured: TGI

CCCCCCCCCC(=O)NC(Cc1ccc(O)cc1)C(=O)NCCCNCCCCNCCCNC(=O)[C@@H](N)CCCN=C(N)N (some centres not stated)
69.7 µM: NCI-H522 lung
48.1 µM: HL-60(TB) leukemia
> 100 µM: 786-0 renal | A549 NSCLC | CCRF-CEM leukemia | DMS 114 small cell lung | EKVX NSCLC | HCC-2998 colon | HCT-116 colon | HCT-15 colon | HT29 colon | K-562 leukemia | KM20L2 colon | LOX IMVI melanoma | LXFL 529 NSCLC | M14 melanoma | M19-MEL melanoma | MOLT-4 leukemia | NCI-H226 lung | NCI-H23 lung | NCI-H460 lung | OVCAR-3 ovarian | OVCAR-8 ovarian | RPMI-8226 leukemia | SF-268 CNS | SK-OV-3 ovarian | SN12C renal | SNB-19 CNS | SR leukemia | SW-620 colon | TK-10 renal | UACC-257 melanoma | UO-31 renal | XF 498 CNS
34.5 µM: COLO 205 colon
67 µM: ACHN renal
35.7 µM: SK-MEL-5 melanoma
42.9 µM: DMS 273 small cell lung
39.7 µM: MALME-3M melanoma
74.5 µM: IGROV1 ovarian
85.6 µM: SF-295 CNS
26.8 µM: SF-539 CNS
61.5 µM: KM12 colon
69.5 µM: HOP-62 NSCLC
43.8 µM: SK-MEL-28 melanoma

C=Cc1c(C)c2cc3[nH]c(cc4nc(cc5nc(cc1[nH]2)C(C)=C5CCC(=O)N(CC)CC)C(CCC(=O)N(CC)CC)=C4C)c(C)c3C=C
88.3 µM: SNB-75 CNS
> 100 µM: 786-0 renal | A549 NSCLC | ACHN renal | CCRF-CEM leukemia | DLD-1 colon | EKVX NSCLC | HCC-2998 colon | HCT-116 colon | HCT-15 colon | HL-60(TB) leukemia | HOP-62 NSCLC | HOP-92 NSCLC | HT29 colon | IGROV1 ovarian | K-562 leukemia | KM12 colon | KM20L2 colon | LOX IMVI melanoma | LXFL 529 NSCLC | M14 melanoma | M19-MEL melanoma | MALME-3M melanoma | MOLT-4 leukemia | NCI-H23 lung | NCI-H460 lung | NCI-H522 lung | OVCAR-3 ovarian | OVCAR-4 ovarian | OVCAR-5 ovarian | OVCAR-8 ovarian | RXF 393 renal | SF-295 CNS | SF-539 CNS | SK-MEL-2 melanoma | SK-MEL-28 melanoma | SK-MEL-5 melanoma | SK-OV-3 ovarian | SN12C renal | SNB-78 CNS | SR leukemia | SW-620 colon | TK-10 renal | U251 CNS | UACC-257 melanoma | UACC-62 melanoma | UO-31 renal
